Experimental data from patent publication US8299083B2, “PDE5 inhibitor compositions and methods for treating cardiac indications” (The Johns Hopkins University, priority 2004, dated 2012).
Several values for one entry are separate records, joined by “and”; a condition that tells them apart may be missing. Equal values may be shown once. Read-outs that look alike come from different tables or passages of the source.

Key:
[1] = test system: C57BL/6 mice, pressure overload by transverse aortic constriction; experiment: Serial echocardiography in conscious mice with transverse aortic constriction (TAC); assay type: in vivo, mouse; settings: for EF (ejection fraction) / HR (heart rate) / LV Dim (dia) / LV Dim (sys) / LV Mass (estimated, truncated ellipsoid model) / Wall Thickness: sildenafil treated
[2] = Plasma sildenafil levels in healthy volunteers; assay type: in vivo; settings: human, po, 100 mg, 100 mg oral
From the text: Forty healthy volunteers were recruited from the general population in response to advertisements posted in the surrounding community. Subjects were screened by medical history, physical examination, and transthoracic echocardiogram. Individuals with heart disease, atherosclerosis, hypertension, diabetes mellitus, pulmonary hypertension, renal or hepatic disease, smoking, pregnancy, or under treatment with nitrates, adrenergic-blocking drugs, or medicines known to interfere with sildenafil pharmacokinetics were excluded. […] All subjects were instructed to fast for >6 hours prior to study. […] Intravenous dobutamine (5 μg/kg/min) was then administered for 5 minutes to achieve a stable response, and measurements repeated (D1). Dobutamine was discontinued, and 15 minutes provided to return to the baseline state. […] Data were again recorded for a second baseline (B2), and during a second dobutamine infusion (D2) using the identical protocol as for the first test. Plasma sildenafil and its metabolite […] measured in each subject by liquid chromatography and mass spectrometry (SFBC Analytical Labs, North Wales, Pa.).

[3] = test system: total cGMP-esterase activity; experiment: cGMP-esterase (low Km cGMP phosphodiesterase) activity of heart and isolated myocytes; assay type: biochemical, mouse
[4] = test system: STAT3; experiment: IL-6 induced STAT3 activation in neonatal rat myocytes; assay type: cell-based; settings: sildenafil 1 μM
Description: Myocardial tissue extract was electrophoresed in SDS-New Page gel, and probed for both tyrosine phosphorylated (Tyr705) and total Stat3. In additional studies, rat neonatal myocytes were cultured, then exposed to interleukin 6 (IL-6, Cell Signaling, 100 ng/ml) for one hour. […] In other studies, cells were pre-transfected (Lipofectamine™, Invitrogen) with mixed oligonucleotide silencing RNAs for STAT3 (siRNA, SmarTTpool Stat3). Protein extracts were obtained from myocyte extracts after the 1 hour incubation period, and probed for phosphorylated and total protein levels of Stat1 (Tyr701) and Stat3 (Tyr705) (Cell Signaling Inc.). siRNA was transfected into neonatal myocytes.

[5] = test system: C57bl6 mice, isoproterenol-stimulated heart; experiment: Acute isoproterenol-stimulated contractility in intact mice (pressure-volume relations); assay type: in vivo, mouse
Description: Isoproterenol (ISO: 20 ng/kg/minutes i.v.×5 min) with or without PDE5A inhibitor was given to anesthetized intact mice, and in vivo heart function assessed by pressure-volume relations at a fixed atrial pacing rate of 600-650 min^−1. Data were measured at baseline, with ISO, re-baseline, PDE5A-inhibition, and PDE5A inhibition+ISO. The ISO-only response was highly reproducible.

[6] = test system: PKG-1; experiment: PKG-1 activity in isolated adult myocytes; assay type: cell-based, mouse; set-up: concentration or dose not given beside the values
Description: After 10 min, cells were lysed and PKG-1 activity determined.

[7] = test system: MMP-2 and MMP-9; experiment: Cardiac gelatinase zymography; assay type: in vivo, mouse; settings: 3W TAC, co-treatment
Description: In Vitro gelatin lysis by MMP-2 and MMP-9 was assessed by zymography. Briefly, modified Laemmli buffer without mercaptoethanol was added to lysed tissue samples and loaded on 10% gelatin (Invitrogen Corp., San Diego, Calif.). After electrophoresis, gels were washed twice with renaturing buffer at room temperature followed by developing buffer (Invitrogen Corp., San Diego, Calif.), then stained with a commercially available Coomassie stain to visualize lytic bands (SIMPLYBLUe, Invitrogen Corp., San Diego, Calif.).

[8] = test system: C57BL/6 mice, pressure overload by transverse aortic constriction; experiment: TAC-induced cardiac hypertrophy, remodeling and fibrosis (heart weight/tibia length, histology); assay type: in vivo, mouse
From the text: TAC induced marked heart chamber and cellular hypertrophy (+100% by 3-weeks) that progressed to chamber dilation with reduced fractional shortening after 9 weeks. […] TAC induced a time-dependent increase in myocardial fibrosis and myocyte hypertrophy and both were suppressed by PDE5A inhibition (FIG. 1C, e.g. 67% reduction in fibrosis in 9-week hearts, p<0.0001).
Pressure overload was produced by transverse aortic constriction.
Hearts were fixed with 10% formalin overnight, then embedded in paraffin, sectioned at 5 μm thickness and stained with PAS methenamine. Cardiomyocyte diameter and interstitial collagen fraction were determined using computer-assisted image analysis (Adobe Photoshop 5.0, NIH Image J), with the observer blinded as to tissue source. At least 4-5 different hearts, with five separate fields of cells (total 50-70 cells for each heart) were quantified for cellular analysis.

[9] = test system: RhoA, ROCK1 and ROCK2; experiment: RhoA and Rho kinase expression and activity in TAC hearts; assay type: in vivo, mouse; settings: 3 weeks TAC
Description: RhoA activity assay was performed by immunoprecipitation using a commercially available immobilized antibody (SEIZE X IP, Pierce Biotechnology, IL). The antibody used was a rabbit polyclonal antibody raised against RboA (Upstate, NY [1:2500]) and subsequent commercial activity assay according to manufacturer's specification (Upstate Biotechnology, NY).
Protein lysates from whole myocardium and isolated cardiac myocytes were obtained using lysis buffer (Cell Signaling Technology, Beverly, Mass.) with mini-protease inhibitor (Roche, Ind.) and 5% Triton (Sigma Chemical (St. Louis, Mo.). Following 12,000 g centrifugation for 30 minutes, protein was quantified (Pierce Rockford, Ill.), NUPage LDS sample buffer added (Biorad, Hercules, Calif.), and lysates electrophoresed on NuPAGE 4-12% Bis-Tris polyacrylamide gels (Invitrogen, San Diego, Calif.). Membranes were incubated with rabbit polyclonal antibodies raised against ROCK1 or ROCK2 (Cell Signaling Technology, Beverly, Mass.) [1:3,000].

[10] = test system: neonatal rat cardiac myocytes; experiment: Phenylephrine-induced hypertrophy of neonatal rat cardiomyocytes (sarcomere organization, 3H-leucine incorporation); assay type: cell-based; settings: phenylephrine 1 μM, sildenafil 100 nM or 1 μM
[11] = 1-week TAC, then 2 weeks treatment
[12] = inhibitor combined with isoproterenol

**Q.** For `CCCc1nn(C)c2c(=O)[nH]c(-c3cc(S(=O)(=O)N4CCN(C)CC4)ccc3OCC)nc12` [sildenafil], which “serial echocardiography, established hypertrophy” value [1, 11] is on record?
**A.** gradual decline in LV mass and wall thickness, with preservation of systolic ejection

**Q.** What about the “EF (ejection fraction)” value ([1]; Control (sham)) of the same compound?
**A.** 96.5 ± 0.2%

**Q.** And the “HR (heart rate)” value ([1]; Control (sham))?
**A.** 634 ± 9 min⁻¹

**Q.** And the “LV Dim (dia)” value ([1]; Control (sham))?
**A.** 2.87 ± 0.09 mm

**Q.** What about the “LV Dim (sys)” value ([1]; Control (sham)) of the same compound?
**A.** 0.89 ± 0.05 mm

**Q.** And the “LV Mass (estimated, truncated ellipsoid model)” value (from here on “LV Mass”) ([1]; Control (sham))?
**A.** 59.1 ± 5.6 mg

**Q.** What about the “Wall Thickness” value ([1]; Control (sham)) of the same compound?
**A.** 0.71 ± 0.02 mm

**Q.** What about the “EF (ejection fraction)” value ([1]; TAC-3 wks) of the same compound?
**A.** 93.4 ± 1.1 %

**Q.** What about the “HR (heart rate)” value ([1]; TAC-3 wks) of the same compound?
**A.** 595 ± 7 min⁻¹

**Q.** And the “LV Dim (dia)” value ([1]; TAC-3 wks)?
**A.** 3.09 ± 0.06 mm

**Q.** What about the “LV Dim (sys)” value ([1]; TAC-3 wks) of the same compound?
**A.** 1.17 ± 0.08 mm

**Q.** What about the “LV Mass” value ([1]; TAC-3 wks) of the same compound?
**A.** 82.2 ± 5.0 mg

**Q.** What about the “Wall Thickness” value ([1]; TAC-3 wks) of the same compound?
**A.** 0.82 ± 0.02 mm

**Q.** And the “EF (ejection fraction)” value ([1]; TAC-6 wks)?
**A.** 74.9 ± 7.1 %

**Q.** What about the “HR (heart rate)” value ([1]; TAC-6 wks) of the same compound?
**A.** 617 ± 18 min⁻¹

**Q.** What about the “LV Dim (dia)” value ([1]; TAC-6 wks) of the same compound?
**A.** 3.67 ± 0.24 mm

**Q.** What about the “LV Dim (sys)” value ([1]; TAC-6 wks) of the same compound?
**A.** 2.24 ± 0.37 mm

**Q.** And the “LV Mass” value ([1]; TAC-6 wks)?
**A.** 115.6 ± 14.2 mg

**Q.** What about the “Wall Thickness” value ([1]; TAC-6 wks) of the same compound?
**A.** 0.86 ± 0.03 mm

**Q.** What about the “EF (ejection fraction)” value ([1]; TAC-9 wks) of the same compound?
**A.** 71.7 ± 9.9 %

**Q.** What about the “HR (heart rate)” value ([1]; TAC-9 wks) of the same compound?
**A.** 608 ± 25 min⁻¹

**Q.** What about the “LV Dim (dia)” value ([1]; TAC-9 wks) of the same compound?
**A.** 4.14 ± 0.36 mm

**Q.** What about the “LV Dim (sys)” value ([1]; TAC-9 wks) of the same compound?
**A.** 2.54 ± 0.57 mm

**Q.** And the “LV Mass” value ([1]; TAC-9 wks)?
**A.** 142.5 ± 21.5 mg

**Q.** What about the “Wall Thickness” value ([1]; TAC-9 wks) of the same compound?
**A.** 0.86 ± 0.03 mm

**Q.** What about the concentration at 75 min ([2]; subjects excluded from analysis, read-out: plasma concentration, mean of four subjects with very low levels) of the same compound?
**A.** 3.6 nM

**Q.** And the concentration at 75 min ([2]; subjects excluded from analysis, read-out: plasma concentrations, each of four subjects with very low levels)?
**A.** < 6 nM

**Q.** And the concentration at 75 min ([2]; Free plasma sildenafil concentration, 75 minutes after dose)?
**A.** 44 ± 29 nM

**Q.** And the “proportion of total cGMP-esterase activity attributable to PDE5” value ([3]; 3 week TAC hearts)?
**A.** ~60%

**Q.** What about the “PDE5A-dependent cGMP-esterase activity by radio-enzyme assay” value ([3]; NTG, n=9) of the same compound?
**A.** 32±17.3%

**Q.** And the “percent of total cGMP-esterase activity blocked by co-incubation” value ([3]; sham control hearts (baseline))?
**A.** approximately 30%

**Q.** And the “IL-6 induced STAT activation” value [4]?
**A.** prevented the STAT activation

**Q.** And the “isoproterenol-stimulated contractility in intact heart” value ([5]; acute intravenous administration)?
**A.** marked suppression of this adrenergic stimulation response

**Q.** What about the “effect on the heart at rest (dP/dtmax)” value ([5]; given alone, no ISO) of the same compound?
**A.** no effect on the heart at rest

**Q.** What about the “enhancement of PKG-1 activity” value ([6]; basal conditions, inhibitor alone) of the same compound?
**A.** ~10%

**Q.** And the “rise in PKG-1 activity” value [6, 12]?
**A.** 50% and 70%

**Q.** And the “rise in PKG-1 activity over ISO alone” value [6, 12]?
**A.** 30%

**Q.** What about the “gelatinase activity (gel lysis)” value [7] of the same compound?
**A.** largely inhibited

**Q.** And the “myocyte hypertrophy and interstitial fibrosis, established hypertrophy” value [8, 11]?
**A.** both reversed towards baseline

**Q.** What about the reduction in fibrosis ([8]; 9-week TAC hearts) of the same compound?
**A.** 67%

**Q.** And the “TAC-induced hypertrophy and chamber remodeling” value ([8]; TAC mice, concurrent oral treatment)?
**A.** inhibited

**Q.** What about the “reduction of cardiac hypertrophy (heart weight/tibia length)” value ([8]; TAC mice, sildenafil 100 mg/kg/day) of the same compound?
**A.** more than 50%

**Q.** What about the “effect on sham-operated controls” value ([8]; sham-operated mice) of the same compound?
**A.** no impact

**Q.** What about the “RhoA and Rho-kinase expression and activity” value [9] of the same compound?
**A.** inhibits RhoA, Rho-Kinase1 (ROCK1) and Rho-Kinase2 protein expression and activity

**Q.** What about the “PE-induced cellular hypertrophy (sarcomere organization, protein synthesis)” value [10] of the same compound?
**A.** suppressed
